Consider 1 compound from ChEMBL document CHEMBL5113518, “Discovery of a Novel G-Quadruplex and Histone Deacetylase (HDAC) Dual-Targeting Agent for the Treatment of Triple-Negative Breast Cancer” (J Med Chem, 2022).

Activity calls are given as the source filed them. No cut-off for these calls is given here. A value given as a limit tells only on which side of the number the result lay.

Data set [1] is described as follows: Elimination half life in Sprague-Dawley rat at 2 mg/kg, iv measured up to 24 hrs by LC-MS/MS analysis. Format: ADME, organism-based. Particulars: in vivo, read-out: beta t1/2 (converted).
For data set [2], the system named is SUM-159-PT. Briefly: Inhibition of colony formation in human SUM159PT cells measured for 7 days by crystal violet staining based assay. Format: functional, cell-based. As to conditions: dose 2.5 µM, time 7.0 day, DDE = dose-dependent effect.
For data set [3], the target named is Histone deacetylase. Briefly: Inhibition of HDAC in human HeLa nuclear extract incubated for 30 mins by fluorescence-based Glo-luminescence assay. The data set is classed as cell-based.
For data set [4], the system named is MDA-MB-231. Put plainly: Inhibition of cell invasion in human MDA-MB-231 cells at 2.5 uM incubated for 48 hrs by crystal violet staining based transwell assay. The data set is classed as functional.
The test system of data set [5] is Quadruplex DNA. Put plainly: Binding affinity to 5' FAM and 3' TAMRA-labeled c-myc G4-quadruplex DNA HTG21 (unknown origin) assessed as change in melting temperature by fluorescence resonance energy transfer assay. The data set is classed as nucleic-acid assay.
Data set [6] relates to MDA-MB-231. Put plainly: Effect on metabolism in human MDA-MB-231 cells assessed as reduction in glycolysis at 2.5 uM measured after 48 hrs by seahorse XF24 analysis. Format: functional, cell-based.
The test system of data set [7] is HeLa. Put plainly: Potency index, ratio of SAHA IC50 to test compound IC50 for inhibition of HDAC in human HeLa nuclear extract.
The test system of data set [8] is MDA-MB-231. Briefly: Antitumor activity against human MDA-MB-231 cells xenografted in BALB/c-nu/nu mouse assessed as reduction in tumor volume at 2.5 mg/kg, ip measured for 31 days. The data set is classed as functional, organism-based. As to conditions: time 31.0 day.
Data set [9] has as its system MDA-MB-468. Put plainly: Cytotoxicity against human MDA-MB-468 cells harboring wild type BRCA1 and BRCA2 mutant reduction in assessed as cell viability. The data set is classed as functional, cell-based.
The subject of data set [10] is MDA-MB-231. Put plainly: Induction of cell cycle arrest in human MDA-MB-231 cells assessed as accumulation at G2/M phase at 2.5 uM measured for 6 to 48 hrs. The data set is classed as functional, cell-based. Particulars: time 6-48 hrs.
Data set [11] can be described thus: Toxicity in BALB/c-nu/nu mouse at 2.5 mg/kg, ip measured for 31 days. Format: organism-based. Particulars: in vivo, 744 h, time 31 day.
The test system of data set [12] is BT-549. Put plainly: Inhibition of colony formation in human BT-549 cells measured for 7 days by crystal violet staining based assay. The data set is classed as functional, cell-based. Particulars: dose 2.5 µM, time 7.0 day, DDE = dose-dependent effect.
Data set [13] addresses Quadruplex DNA. Put plainly: Binding affinity to 5' FAM-labeled c-myc G4-quadruplex DNA Pu22 (unknown origin) by fluorescence quench assay. The data set is classed as nucleic-acid assay.
Data set [14] has as its system MDA-MB-231. Briefly: Antitumor activity against human MDA-MB-231 cells xenografted in BALB/c-nu/nu mouse assessed as tumor growth inhibition at 2.5 mg/kg, ip measured for 31 days. Format: functional. Particulars: MDA-MB-231, 744 h, time 31 day, read-out: TGI. Background: Xenograft models place foreign cells or tissue in a host animal.
Data set [15] is described as follows: Stabilization of DNA Pu22 (unknown origin ) single strand assessed as G4-quadruplex formation in absence of potassium ions by spectrum based circular dichroism analysis. As to conditions: dose <= 30.0 µM; DDE = dose-dependent effect.
Data set [16] in a line: Toxicity in BALB/c-nu/nu mouse assessed as toxic sign at 2.5 mg/kg, ip measured for 31 days. Particulars: in vivo, 744 h, time 31 day. Format: organism-based.
In data set [17] the target is T1, Histone deacetylase 8 (Homo sapiens, UniProt Q9BY41).
T1 sequence (Q9BY41 whole entry): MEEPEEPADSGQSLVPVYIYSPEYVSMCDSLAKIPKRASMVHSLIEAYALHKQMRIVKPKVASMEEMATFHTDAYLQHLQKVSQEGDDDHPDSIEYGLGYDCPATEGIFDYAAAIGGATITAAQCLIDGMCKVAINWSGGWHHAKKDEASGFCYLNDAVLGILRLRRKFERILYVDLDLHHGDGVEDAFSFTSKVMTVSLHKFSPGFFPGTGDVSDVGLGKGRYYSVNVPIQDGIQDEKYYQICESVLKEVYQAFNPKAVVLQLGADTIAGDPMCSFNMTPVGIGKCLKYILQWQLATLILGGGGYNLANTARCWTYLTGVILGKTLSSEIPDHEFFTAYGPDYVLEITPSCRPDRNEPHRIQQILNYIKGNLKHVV
Briefly: Inhibition of full length recombinant N-terminal GST-tagged human HDAC8 expressed in baculovirus infected Sf9 insect cells incubated for 50 mins by Glo- luminescence assay.

Data set [18] can be described thus: Stabilization of DNA Pu22 (unknown origin ) single strand assessed as G4-quadruplex formation up to 30 uM in presence of potassium ions by spectrum based circular dichroism analysis. Background: Circular dichroism is the unequal absorption of left and right circularly polarised light.
Data set [19] addresses Quadruplex DNA. Put plainly: Binding affinity to 5' FAM-labeled […] (unknown origin) assessed as dissociation constant by surface plasmon resonance assay. The data set is classed as nucleic-acid assay. For orientation: Surface plasmon resonance follows binding to a sensor surface in real time, without labels.
The test system of data set [20] is MDA-MB-231. Briefly: Stabilization of DNA Pu22 (unknown origin ) in human MDA-MB-231 cells assessed as G4-quadruplex formation by measuring fold change at 2.5 uM incubated for 6 hrs by immunofluorescence based confocal laser scanning microscopic analysis. Format: cell-based.
Data set [21] deals with Histone deacetylase (Homo sapiens) (UniProt Q13547+O15379+Q9UBN7+Q92769+Q9UQL6+Q8WUI4+Q9BY41+Q96DB2+P56524+Q9UKV0+Q969S8). Put plainly: Inhibition of HDAC in human BT-549 cells assessed as increase in acetylated alpha-tubulin level at 1.25 to 5 uM by Western blot analysis. Particulars: dose 1.25-5 µM. The data set is classed as cell-based.
The target of data set [22] is Quadruplex DNA. Briefly: Binding affinity to 5' FAM-labeled c-myc G4-quadruplex DNA HTG21 (unknown origin) assessed as dissociation constant by surface plasmon resonance assay. The data set is classed as nucleic-acid assay.

As to `CN(C)CCCNC(=O)c1ccc(/C=C2\CCn3c2nc2cc(N4CCN(CCCCCCCC(=O)NO)CC4)c(F)cc2c3=O)cc1.Cl`, the half-life in data set [1] was 7.4 h. Further, the inhibition entry in data set [2] and in data set [12] was “Dde” throughout. Besides, the values for the IC50 in [3], in [9] and in data set [17] were 1900 nM, 3300 nM and 30 nM, respectively. Also, the inhibition entry in data set [4] and in data set [21] was “Active” each time. Besides, the ΔTm (as a rule, the change in melting temperature against a reference sample) in data set [5] is 2 °C. In addition, the result in data set [6], in data set [8], in [10], in data set [18] and in [20] was Active. In [7], the Ratio IC50 worked out at 20. Moreover, the Activity entry in data set [11] was “Non-Toxic”; in data set [15], “Dde”; in data set [16] it was “Non-Toxic”. In addition, the DC50 in [13] was 400 nM. For the same compound, the inhibition in vivo at 2.5 mg/kg in data set [14] was 69%. Further, the dissociation constant (Kd) (commonly a measure of binding affinity in units of concentration) is 4500 nM in [19] and more than 10000 nM in [22].
